{"source": "patent US11433075B2", "about": "“Methods of treating glioblastoma” (TriAct Therapeutics, Inc., priority 2017, dated 2022)", "key": {"[1]": {"settings": "human, in vivo, iv", "source_text": "It was a single arm, multi dose, dose escalating trial in newly diagnosed GBM patients. The total number of patients was 43, with about 5 patients per cohort. Patients who tolerated radiation (XRT) and temozolomide (TMZ) were recruited. Inclusion criteria included completion of XRT and TMZ without grade 3 or 4 toxicity and labs within acceptable range within 6 weeks of completing XRT. The end points included safety, maximum tolerated dose (MTD), and signal of activity.\nThe patients were separated into two study groups with the following treatment schema (also see FIG. 1).\nContinuous Reassessment Method (CRM) was used to determine dose escalation. PK was drawn at cycle 1, 2, 3 and off treatment. PD via PBMCs was drawn at cycle 1, 2, 3 and off treatment. No cytochrome P450-inducing anticonvulsants. However, Gliadel was permitted.\nDosing is IV 2×/week continuous."}, "[2]": {"test_system": "newly diagnosed GBM patients", "assay": "Phase I GBM study: safety, DLT, MTD, adverse events", "type": "in vivo, human", "description": "Study Group 1 Treatment Cycles 4 weeks each (N=23)\nStudy Group 2 Treatment Cycles 10 weeks each (N=20)\nNo cytochrome P450-inducing anticonvulsants. However, Gliadel was permitted.\nGroup 1: TMZ (150-200 mg/m^2 given 5 days/month×6 cycles)—standard dose with BSI-201 starting at 5.1 mg/kg.\nGroup 2: TMZ (75 mg/m^2 daily 42 days on 30 days off×3 cycles)—metronomic dose with BSI-201 starting at 5.1 mg/kg.\nUsing modified continual reassessment method, MTD was defined for metronomic and standard dose TMZ. 6 dose levels were tested (lowest 5.1 mg/kg-highest 9.5 mg/kg IV 2×/wk). […] The DLTs across both groups were: rash (1), hypersensitivity reaction (1), fatigue (1) and a thromboembolic event (1). […] Phase 2 dose defined as 8 mg/kg IV 2×/wk with standard TMZ and 8.6 mg/kg IV 2×/wk with metronomic TMZ."}, "[3]": {"test_system": "adult patients with newly diagnosed glioblastoma multiforme (GBM)", "assay": "Phase II GBM trial (ABTC0703): overall survival", "type": "in vivo, human", "description": "76 patients were recruited for this study.\nThe following treatment schema (also see FIG. 2).\nRT: 60 Gy (total) TMZ: Daily 75 mg/m^2\nBSI-201: once per day, twice a week (8.0 mg/kg IV q2 wk)\nRest (4 weeks) with no treatment.\nMaintenance Cycles 1-6 (4 weeks)\nBSI-201: once per day, twice a week (8.6 mg/kg IV q2 wk)\n(§1) For assessing the efficacy of the treatment in terms of overall survival, the overall failure rate were estimated and compared to the failure rate of 0.6 per-person year of follow-up regarding the Phase III trial done by Stupp et al. in the same patient population treated with RT plus concomitant and adjuvant temozolomide.\nThe primary endpoint was death due to all causes. The survival time is defined from time of histological diagnosis to death occurrence. The overall failure rate was expressed as hazard of failure per person-year of follow-up. The total patient population for this part of the study was defined as all patients who have met the eligibility criteria, not met ineligibility criteria, and signed patient informed consent.\nIt yield above 90% power to detect a 30% reduction in hazard rate with observed hazard ratio of 0.7 (0.42 vs. 0.6) at an alpha level of 0.1 to be significant. The overall failure rate was estimated by dividing the number of events (deaths) by the total exposure time in the study cohort along with 95% confidence intervals. Survival probability and median time of survival was calculated using Kaplan-Meier method."}, "[4]": {"test_system": "same patient population (newly diagnosed GBM)", "assay": "EORTC Phase III trial, Stupp et al. 2005 (RT plus concomitant and adjuvant temozolomide)", "type": "in vivo, human", "settings": "2005 n = 287, conversion", "text": "as §1"}, "GBM patients": {"test_system": "GBM patients", "assay": "RTOG 0525 trial, 2013 (STD and DD arms)", "type": "in vivo, human", "settings": "conversion"}, "[5]": {"test_system": "same patient population (newly diagnosed GBM)", "settings": "Stupp et al, 2005 (RT + temozolomide); cited from earlier work"}}, "note": "Like-named read-outs stand apart in the source and are kept apart here."}
{"smiles": "NC(=O)c1ccc(I)c(N)c1", "note": "[IABM]", "values": [{"measurement": "Cmax", "setting": "[1]; 5.1 mg/kg", "value": "5.7 ± 4.1", "unit": "ng/mL"}, {"measurement": "Cmax", "setting": "[1]; 6.1 mg/kg", "value": "7.2 ± 1.8", "unit": "ng/mL"}, {"measurement": "Cmax", "setting": "[1]; 6.8 mg/kg", "value": "8.4 ± 3.7", "unit": "ng/mL"}, {"measurement": "Cmax", "setting": "[1]; 8 mg/kg", "value": "10.3 ± 2.9", "unit": "ng/mL"}, {"measurement": "Cmax", "setting": "[1]; 8.6 mg/kg", "value": "9.7 ± 2.4", "unit": "ng/mL"}, {"measurement": "Cmax", "setting": "[1]; 9.5 mg/kg", "value": "13.6 ± 5.3", "unit": "ng/mL"}]}
{"smiles": "NC(=O)c1ccc(I)c([N+](=O)[O-])c1", "note": "[Iniparib, 4-iodo-3-nitrobenzamide]", "values": [{"measurement": "Phase 2 dose", "setting": "[2]; IV 2×/wk with metronomic TMZ", "value": 8.6, "unit": "mg/kg"}, {"measurement": "Phase 2 dose", "setting": "[2]; IV 2×/wk with standard TMZ", "value": 8, "unit": "mg/kg"}, {"measurement": "DLT: fatigue (number)", "setting": "[2]; human, in vivo", "value": 1}, {"measurement": "DLT: hypersensitivity reaction (number)", "setting": "[2]; human, in vivo", "value": 1}, {"measurement": "DLT: rash (number)", "setting": "[2]; human, in vivo", "value": 1}, {"measurement": "DLT: thromboembolic event (number)", "setting": "[2]; human, in vivo", "value": 1}, {"measurement": "White counts decreased", "setting": "[2]; human, in vivo", "value": "22 (51) No. (% of pts)"}, {"measurement": "Median Overall Survival, mOS, MGMT methylated", "setting": "[3]; ABTC0703, n = 29", "value": "27 (n = 29) Months"}, {"measurement": "Median Overall Survival, mOS, MGMT unmethylated", "setting": "[3]; ABTC0703, n = 37", "value": "15.8 (n = 37) Months"}, {"measurement": "Hazard Rate (per person year of follow-up)", "setting": "[3]; ABTC0703 n = 76, hazard rate of death", "value": "0.403 per person year of follow-up"}, {"measurement": "Median Overall Survival Months, (95% CI)", "setting": "[3]; ABTC0703 n = 76, iniparib + RT + TMZ, then iniparib + TMZ maintenance", "value": "21.6 (16.1-23.7) Months"}, {"measurement": "Comparison with RTOG 0525 (2013)", "setting": "[3]; extrapolated and not pre-planned analysis", "value": "improved"}, {"measurement": "Reduction of HR versus Stupp et al 2005", "setting": "[3]; single arm phase 2, efficacy endpoint met", "value": "≥ 25", "unit": "%"}]}
{"smiles": "Cn1nnc2c(C(N)=O)ncn2c1=O", "note": "[temozolomide]", "values": [{"measurement": "Hazard Rate (per person year of follow-up)", "setting": "[4]", "value": "0.6 per person year of follow-up"}, {"measurement": "Hazard Rate (per person year of follow-up)", "setting": "GBM patients; RTOG 0525, 2013 DD arm, n = 422", "value": "0.558 per person year of follow-up"}, {"measurement": "Hazard Rate (per person year of follow-up)", "setting": "GBM patients; RTOG 0525, 2013 STD arm, n = 411", "value": "0.501 per person year of follow-up"}, {"measurement": "Neutrophil Count Decreased", "setting": "[5]", "value": 7, "unit": "%"}, {"measurement": "Platelet Count Decreased", "setting": "[5]", "value": 12, "unit": "%"}, {"measurement": "White Blood Cell Decreased", "setting": "[5]", "value": 7, "unit": "%"}]}
